Laboratory results reported in patent US9090600B2, “Fungicidal 4-substituted-3-{phenyl[(heterocyclylmethoxy)imino]methyl}-1,2,4-oxadizol-5(4H)-one derivatives” (BAYER INTELLECTUAL PROPERTY GMBH, priority 2011, dated 2015).
Marks after values point to notes of the source that are not given here.

Experiments:
Plasmopara viticola = assay: Plasmopara test (grapevines)/preventive; format: in vivo; settings: preventive spray, 10 ppm of active ingredient, evaluated 6 days after inoculation
Experimental: Solvent: 24.5 parts by weight of acetone • 24.5 parts by weight of dimethylacetamide
Emulsifier: 1 part by weight of alkylaryl polyglycol ether
To produce a suitable preparation of active compound, 1 part by weight of active compound is mixed with the stated amounts of solvent and emulsifier, and the concentrate is diluted with water to the desired concentration.
To test for preventive activity, young plants are sprayed with the preparation of active compound at the stated rate of application. After the spray coating has dried on, the plants are inoculated with an aqueous spore suspension of Plasmopara viticola and then remain for 1 day in an incubation cabinet at approximately 20° C. and a relative atmospheric humidity of 100%. The plant is subsequently placed for 4 days in a greenhouse at approximately 21° C. and a relative atmospheric humidity of approximately 90%. The plants are then misted and placed for 1 day in an incubation cabinet.
The test is evaluated 6 days after the inoculation. 0% means an efficacy which corresponds to that of the untreated control, while an efficacy of 100% means that no disease is observed.

Phytophthora infestans = format: in vivo; settings: tomato plants, spray, 500 ppm, grading 5 days after contamination
[1] = pH 2.7

SMILES	Eff. % (Plasmopara viticola) [%]	Eff. % (Phytophthora infestans) [%]	LogP [1]
COc1cccc(OC(C)C(=O)Nc2nc(CO/N=C(/c3ccccc3)c3noc(=O)n3C)cs2)c1 (stereo not drawn) [Example 50]	95	94	3.71 [a]
COc1cccc(OCC(=O)Nc2cccc(CO/N=C(/c3ccccc3)c3noc(=O)n3C)n2)c1 [Example 51]	91		3.73 [a]
Cn1c(/C(=N\OCc2cccc(NC(=O)c3ccccc3)n2)c2ccccc2)noc1=O [Example 54]	93	100	3.51 [a]
Cn1c(/C(=N\OCc2cccc(NC(=O)CCC(C)(C)C)n2)c2ccccc2)noc1=O [Example 59]	98	100	4.15 [a]
CC(OC(=O)Nc1cccc(CO/N=C(/c2ccccc2)c2noc(=O)n2C)n1)c1ccccc1 (stereo not drawn) [Example 68]	90	100	4.23 [a]
Cn1c(/C(=N\OCc2csc(NC(=O)COc3cccc(F)c3)n2)c2ccccc2)noc1=O [Example 100]	74		3.58 [a]
Cn1c(C(=NOCc2cccc(NCC3CCCCC3)n2)c2ccccc2)noc1=O [Example 116]	93		3.02 [a]
Cn1c(/C(=N\OCc2csc(NC(=O)COC3CCCC3)n2)c2ccccc2)noc1=O [Example 195]	95		3.73 [a]
Cn1c(C(=NOCc2cccc(NC(=O)c3ccc(Cl)cc3)n2)c2ccccc2)noc1=O [Example 245]	93		4.01 [a]
Cn1c(C(=NOCc2cccc(NC(=O)CCCC3CCCCC3)n2)c2ccccc2)noc1=O [Example 267]		97	5.14 [a]
CCCC(=O)Nc1nc(CON=C(c2ccccc2)c2noc(=O)n2C)cs1 [Example 271]		80	3.02 [a]
Cc1cccc(C(=NOCc2cccc(NC(=O)OCCc3ccccc3)n2)c2noc(=O)n2C)c1 [Example 272]		88	4.49 [a]
CCCCCC(C)OC(=O)Nc1cccc(CO/N=C(/c2ccccc2)c2noc(=O)n2C)n1 (stereo not drawn) [Example 285]		88	5.19 [a]
CC(C)COC(=O)Nc1nc(CO/N=C(/c2ccccc2)c2noc(=O)n2C)cs1 [Example 286]		97	3.71 [a]
Cn1c(/C(=N\OCc2cccc(NC(=O)OCCC#N)n2)c2ccccc2)noc1=O [Example 288]		97	2.78 [a]
Cn1c(/C(=N\OCc2csc(NC(=O)c3cccc(Br)c3)n2)c2ccccc2)noc1=O [Example 289]		98	4.04 [a]
COc1cccc(C(=NOCc2cccc(NC(=O)OCc3ccccc3)n2)c2noc(=O)n2C)c1 [Example 290]		75	4.04 [a]
Cc1ccc(OCC(=O)Nc2cccc(CO/N=C(/c3ccccc3)c3noc(=O)n3C)n2)cc1 [Example 296]	74		4.07 [a]
Cn1c(/C(=N\OCc2cccc(NC(=O)OCCc3ccccc3)n2)c2cccc(F)c2)noc1=O [Example 297]		95	4.26 [a]
CCCCCOC(=O)Nc1cccc(CO/N=C(/c2ccccc2)c2noc(=O)n2CC)n1 [Example 300]		100	4.72 [a]
Cn1c(/C(=N\OCc2cccc(NC(=O)CCc3ccc(F)cc3)n2)c2ccccc2)noc1=O [Example 301]		100	3.81 [a]
CCCCCCCCCC(=O)Nc1cccc(CO/N=C(/c2ccccc2)c2noc(=O)n2C)n1 [Example 303]		98	5.54 [a]
C=CC(=O)Nc1cccc(CO/N=C(/c2ccccc2)c2noc(=O)n2C)n1 [Example 304]		83	2.77 [a]
Cn1c(/C(=N\OCc2cccc(NC(=O)C(F)(F)Oc3ccccc3)n2)c2ccccc2)noc1=O [Example 307]	98		4.08 [a]
Cn1c(/C(=N\OCc2cccc(NC(=O)C3(F)CC3)n2)c2ccccc2)noc1=O [Example 309]		100	3.31 [a]
COc1ccc(CCOC(=O)Nc2cccc(CO/N=C(/c3ccccc3)c3noc(=O)n3C)n2)cc1 [Example 310]		70	4.08 [a]
Cn1c(/C(=N\OCc2cccc(NC(=O)COc3ccccc3)n2)c2ccccc2)noc1=O [Example 313]		100	3.73 [a]
CCCCC(C)(C)C(=O)Nc1cccc(CO/N=C(/c2ccccc2)c2noc(=O)n2C)n1 [Example 316]	84		4.63 [a]
